ChEMBL document CHEMBL1201862, “PubChem BioAssay data set” (2004)
The source made the active and inactive calls.

Assays:
[1] = molecular target: T1, Aminopeptidase N (Plasmodium falciparum FcB1/Columbia, UniProt O96935); experiment: malaria alanyl aminopeptidase activity blockers – biochemical, fluorogenic H-Leu-NHMec substrate, 1536-well (AID 1445); set-up: species or system Plasmodium falciparum 3D7, 3D7
T1 sequence (O96935 whole entry): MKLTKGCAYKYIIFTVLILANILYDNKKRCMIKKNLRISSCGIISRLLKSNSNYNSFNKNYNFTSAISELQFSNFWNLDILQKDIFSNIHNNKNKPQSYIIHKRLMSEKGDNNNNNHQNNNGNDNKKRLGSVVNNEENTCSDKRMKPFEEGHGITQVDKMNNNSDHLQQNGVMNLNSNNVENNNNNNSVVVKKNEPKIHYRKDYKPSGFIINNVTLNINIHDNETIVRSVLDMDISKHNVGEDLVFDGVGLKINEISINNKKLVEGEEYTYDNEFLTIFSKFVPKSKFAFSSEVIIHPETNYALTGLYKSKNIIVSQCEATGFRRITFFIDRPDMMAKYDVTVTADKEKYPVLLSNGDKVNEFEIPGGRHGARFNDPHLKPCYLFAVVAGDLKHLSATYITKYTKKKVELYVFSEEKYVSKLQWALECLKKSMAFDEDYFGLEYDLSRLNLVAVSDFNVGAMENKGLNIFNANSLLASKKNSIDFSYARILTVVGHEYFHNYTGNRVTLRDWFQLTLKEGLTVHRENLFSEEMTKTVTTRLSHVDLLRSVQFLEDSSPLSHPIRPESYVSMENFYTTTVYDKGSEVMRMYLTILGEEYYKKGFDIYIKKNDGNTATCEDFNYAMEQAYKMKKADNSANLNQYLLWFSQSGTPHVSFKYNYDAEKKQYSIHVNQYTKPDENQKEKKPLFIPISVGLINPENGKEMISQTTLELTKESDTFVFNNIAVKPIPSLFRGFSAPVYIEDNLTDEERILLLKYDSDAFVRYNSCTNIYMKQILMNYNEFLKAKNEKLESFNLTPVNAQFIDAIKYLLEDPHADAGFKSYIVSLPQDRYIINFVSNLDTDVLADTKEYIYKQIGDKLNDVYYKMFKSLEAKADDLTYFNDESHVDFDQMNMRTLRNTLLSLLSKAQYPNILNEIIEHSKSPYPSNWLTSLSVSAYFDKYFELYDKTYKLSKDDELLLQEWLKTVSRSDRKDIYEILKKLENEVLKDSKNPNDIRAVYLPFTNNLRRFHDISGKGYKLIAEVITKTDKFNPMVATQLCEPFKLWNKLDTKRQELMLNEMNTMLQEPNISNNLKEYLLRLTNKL

[2] = system: HEK293; experiment: EBV LMP1 TES2 canonical NF-kB signalling blockers – cell-based, HEK293, luciferase, cherry-pick, dose response (AID 588343); type: functional; conditions: Homo sapiens
[3] = molecular target: Genome polyprotein (dengue virus type 2, UniProt P29990); experiment: flavivirus cap methylation enzyme inhibition – biochemical, confirmation dose response, primary screen (AID 588689); type: functional
[4] = molecular target: Nuclear receptor subfamily 5 group A member 2 (Homo sapiens, UniProt O00482); type: functional, cell-based;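 also: HEK293T cells transfected with LRH-1 and a StAR promoter luciferase reporter; potency for inhibitors that lower LRH-1 driven reporter light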
[5] = molecular target: Steroidogenic factor 1 (Homo sapiens, UniProt Q13285); experiment: Counterscreen for inverse agonists of the liver receptor homolog-1 (LRH-1; NR5A2): Luminescence-based cell-based high throughput dose response assay to identify inverse agonists of the Steroidogenic Factor 1 Nuclear Receptor (SF1; NR5A1).; type: functional
[6] = nonselective StAR promoter luciferase inhibitors – cell-based, luminescence, luciferase reporter, counter-screen for LRH-1 inverse agonist project, dose response (AID 651969); type: functional
[7] = system: Streptococcus sp. 'group A'; experiment: Streptococcus pyogenes SK(-)GAS viability under kanamycin – luminescence, BacTiterGlo, confirmation, counter-screen for streptokinase expression inhibitor project, dose response (AID 1900); type: functional, organism-based
[8] = molecular target: T2, Streptokinase A (Streptococcus pyogenes serotype M1, UniProt P10520); experiment: viability-normalized secreted streptokinase activity reduction – plasminogen activation absorbance, OD405, dose response (AID 1914); type: functional, Streptococcus pyogenes M1 GAS;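 also: secreted streptokinase activity via plasminogen activation per viability signal from cell pellet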
T2 sequence (P10520 whole entry): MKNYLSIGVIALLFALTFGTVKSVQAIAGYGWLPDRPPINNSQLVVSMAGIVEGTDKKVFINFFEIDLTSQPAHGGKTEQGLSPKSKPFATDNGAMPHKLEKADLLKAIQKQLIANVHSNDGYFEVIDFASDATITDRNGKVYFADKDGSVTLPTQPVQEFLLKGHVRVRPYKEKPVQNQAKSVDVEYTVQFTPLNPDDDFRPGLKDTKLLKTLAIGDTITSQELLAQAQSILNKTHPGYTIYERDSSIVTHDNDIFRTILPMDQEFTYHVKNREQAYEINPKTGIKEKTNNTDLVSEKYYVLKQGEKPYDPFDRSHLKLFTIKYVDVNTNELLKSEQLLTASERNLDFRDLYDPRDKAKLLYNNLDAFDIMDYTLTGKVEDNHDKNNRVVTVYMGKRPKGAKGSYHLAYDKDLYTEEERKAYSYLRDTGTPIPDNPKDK

[9] = Trypanosoma cruzi growth suppression in host cells – NIH3T3 host cells, beta-gal luminescence, confirmation (AID 2044); type: functional, cell-based;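 also: intracellular parasites grown in NIH/3T3 mouse fibroblasts as host cells; luminescent beta-galactosidase reporter signal from transgenic T. cruzi replicating inside host cells; inhibitors lower the luminescence signal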
[10] = NIH3T3 cell viability loss – ATP luminescence, mouse fibroblasts, counter-screen, dose response (AID 2010); type: functional, cell-based;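 also: cells exposed to compound for about 90 hours before reading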
[11] = system: Streptococcus; experiment: GAS UMAA2166 growth inhibition – luminescence, BacTiterGlo, counter-screen for streptokinase expression inhibitor project, dose response (AID 1915); type: functional, organism-based;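 also: potency for reduction of bacterial viability or growth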
[12] = cells; type: functional, cell-based
[13] = cells; type: functional, cell-based; remark: listed apart in the source
[14] = system: INS1; experiment: INS-1E survival protection against cytokine death – cell-based, luminescence, retest, dose response (AID 449756); type: functional; conditions: Rattus norvegicus;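 also: cell death triggered by IL-1 beta plus TNF-alpha plus IFN-gamma mixture; protective hits raise ATP signal compared with cytokine alone wells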
[15] = blockade of melanocortin 4 receptor signaling – cell-based, plate reader, cherry pick, counter-screen for LGR2 antagonist project, dose response (AID 743444); type: functional;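 also: transfected HEK 293 cells stimulated with alpha-MSH peptide; potency of inhibitors of the alpha-MSH evoked signal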
[16] = blockers of HIV-1 envelope-mediated cell-cell fusion – cherry-pick, dose response (AID 652057); type: functional, cell-based
[17] = blockers of HIV-1 ZM109 envelope-driven cell-cell fusion – HeLa effector, CEM target cells, luciferase, cherry-pick, dose response (AID 652058); type: functional, cell-based;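 also: luciferase signal from HIV-1 Env mediated cell-cell fusion of effector and target cells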
[18] = off-target signal loss in HeLa-CEM21 co-culture – HeLa F-luc CTL cells, cherry-picked, counter-screen for HIV-1 Env fusion inhibitor project, dose response (AID 652040); type: functional, cell-based;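 also: potency for signal decrease marking cytotoxic or nonspecific inhibition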
[19] = HIV-1 AD8 envelope cell-cell fusion blockers – cherry-pick, dose response (AID 652062); type: functional, cell-based;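 also: luciferase signal from cell-cell fusion driven by HIV-1 clade B AD8 Env; potency is for inhibitors of fusion seen as a drop in luminescence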
[20] = molecular target: T3, Replicative DNA helicase DnaB (Mycobacterium tuberculosis, UniProt P9WMR3); experiment: DnaB intein splicing inhibitors, dose response, biochemical, cell-free fluorescence (AID 449749); type: functional
T3 sequence (P9WMR3 whole entry): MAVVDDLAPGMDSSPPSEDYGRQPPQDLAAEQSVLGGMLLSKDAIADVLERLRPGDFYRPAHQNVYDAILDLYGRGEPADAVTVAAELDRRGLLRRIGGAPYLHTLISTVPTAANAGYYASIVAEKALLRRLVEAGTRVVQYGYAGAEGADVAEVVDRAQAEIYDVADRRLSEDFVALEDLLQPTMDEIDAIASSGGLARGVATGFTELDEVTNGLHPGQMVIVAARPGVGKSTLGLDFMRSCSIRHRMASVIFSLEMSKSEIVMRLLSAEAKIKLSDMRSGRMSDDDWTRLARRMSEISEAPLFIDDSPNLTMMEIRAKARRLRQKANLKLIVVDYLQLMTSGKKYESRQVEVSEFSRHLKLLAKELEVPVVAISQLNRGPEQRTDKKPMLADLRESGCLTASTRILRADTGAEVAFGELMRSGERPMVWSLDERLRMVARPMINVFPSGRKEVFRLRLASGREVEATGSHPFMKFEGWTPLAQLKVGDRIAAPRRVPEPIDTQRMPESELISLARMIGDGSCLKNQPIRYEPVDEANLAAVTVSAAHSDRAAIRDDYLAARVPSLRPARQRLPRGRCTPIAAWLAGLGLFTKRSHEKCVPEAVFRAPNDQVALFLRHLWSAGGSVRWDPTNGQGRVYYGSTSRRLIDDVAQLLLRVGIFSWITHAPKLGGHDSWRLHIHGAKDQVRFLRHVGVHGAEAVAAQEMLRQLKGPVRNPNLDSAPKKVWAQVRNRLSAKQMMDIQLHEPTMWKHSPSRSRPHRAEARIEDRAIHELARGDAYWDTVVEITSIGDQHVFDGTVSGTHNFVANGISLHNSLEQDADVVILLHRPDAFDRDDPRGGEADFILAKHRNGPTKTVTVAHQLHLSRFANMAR

[21] = molecular target: T4, Protein RecA (Mycobacterium tuberculosis, UniProt P9WHJ3); experiment: Fluorescence Cell-Free Homogeneous Dose Retest to Identify Inhibitors of RecA-Intein Splicing Activity. [Related pubchem assays (depositor defined):AID2097, AID2223, AID489010, AID492950]; type: functional
T4 sequence (P9WHJ3 whole entry): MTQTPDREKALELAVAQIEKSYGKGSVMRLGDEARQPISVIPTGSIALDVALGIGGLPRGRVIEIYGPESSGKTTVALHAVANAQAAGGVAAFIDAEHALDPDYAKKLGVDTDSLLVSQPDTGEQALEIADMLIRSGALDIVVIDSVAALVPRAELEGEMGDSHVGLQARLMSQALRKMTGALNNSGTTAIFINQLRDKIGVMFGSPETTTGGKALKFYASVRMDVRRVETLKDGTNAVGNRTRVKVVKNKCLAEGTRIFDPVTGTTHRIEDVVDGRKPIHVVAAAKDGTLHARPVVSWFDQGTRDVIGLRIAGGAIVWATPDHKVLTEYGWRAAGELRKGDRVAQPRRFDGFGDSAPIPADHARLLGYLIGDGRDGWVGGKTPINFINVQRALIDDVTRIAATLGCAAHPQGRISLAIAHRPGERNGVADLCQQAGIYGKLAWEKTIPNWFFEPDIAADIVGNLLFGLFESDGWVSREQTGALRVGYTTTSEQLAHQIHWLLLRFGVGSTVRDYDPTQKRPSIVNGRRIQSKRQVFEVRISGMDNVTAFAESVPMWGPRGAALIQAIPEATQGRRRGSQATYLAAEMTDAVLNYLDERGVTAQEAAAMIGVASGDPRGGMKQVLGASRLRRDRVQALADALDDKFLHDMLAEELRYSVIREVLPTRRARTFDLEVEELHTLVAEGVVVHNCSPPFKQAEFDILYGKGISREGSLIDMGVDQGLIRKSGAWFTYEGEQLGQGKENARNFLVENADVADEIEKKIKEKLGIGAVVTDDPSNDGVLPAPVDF

Chain of Nuclear receptor subfamily 5 group A member 2 (O00482 whole entry): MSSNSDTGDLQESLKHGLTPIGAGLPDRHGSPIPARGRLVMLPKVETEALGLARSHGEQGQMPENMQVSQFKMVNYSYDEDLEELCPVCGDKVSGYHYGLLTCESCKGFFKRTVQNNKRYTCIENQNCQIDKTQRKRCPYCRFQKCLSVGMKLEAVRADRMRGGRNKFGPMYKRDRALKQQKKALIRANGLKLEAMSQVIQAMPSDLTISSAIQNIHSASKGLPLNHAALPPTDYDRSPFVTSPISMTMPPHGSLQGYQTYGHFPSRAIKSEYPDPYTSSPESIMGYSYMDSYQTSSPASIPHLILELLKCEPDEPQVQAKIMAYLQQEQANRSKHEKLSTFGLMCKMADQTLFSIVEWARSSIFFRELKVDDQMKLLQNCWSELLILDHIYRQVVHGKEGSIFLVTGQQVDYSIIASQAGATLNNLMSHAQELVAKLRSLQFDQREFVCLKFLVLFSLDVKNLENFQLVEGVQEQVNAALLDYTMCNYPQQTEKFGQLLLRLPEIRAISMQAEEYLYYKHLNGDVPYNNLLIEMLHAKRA
Chain of Steroidogenic factor 1 (Q13285 whole entry): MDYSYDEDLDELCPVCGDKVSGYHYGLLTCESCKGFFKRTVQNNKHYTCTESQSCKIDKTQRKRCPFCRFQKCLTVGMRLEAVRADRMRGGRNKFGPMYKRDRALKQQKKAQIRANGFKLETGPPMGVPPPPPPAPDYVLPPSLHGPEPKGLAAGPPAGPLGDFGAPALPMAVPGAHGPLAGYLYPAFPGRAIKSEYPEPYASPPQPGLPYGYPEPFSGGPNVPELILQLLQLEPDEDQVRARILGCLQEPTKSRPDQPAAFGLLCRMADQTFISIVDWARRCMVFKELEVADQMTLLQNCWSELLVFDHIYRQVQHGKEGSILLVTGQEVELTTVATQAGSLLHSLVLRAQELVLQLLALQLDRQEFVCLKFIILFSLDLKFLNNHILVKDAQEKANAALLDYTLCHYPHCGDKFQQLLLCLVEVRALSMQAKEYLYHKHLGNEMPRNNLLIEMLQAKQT
Chain of Genome polyprotein (P29990 2492-3391 limits assumed): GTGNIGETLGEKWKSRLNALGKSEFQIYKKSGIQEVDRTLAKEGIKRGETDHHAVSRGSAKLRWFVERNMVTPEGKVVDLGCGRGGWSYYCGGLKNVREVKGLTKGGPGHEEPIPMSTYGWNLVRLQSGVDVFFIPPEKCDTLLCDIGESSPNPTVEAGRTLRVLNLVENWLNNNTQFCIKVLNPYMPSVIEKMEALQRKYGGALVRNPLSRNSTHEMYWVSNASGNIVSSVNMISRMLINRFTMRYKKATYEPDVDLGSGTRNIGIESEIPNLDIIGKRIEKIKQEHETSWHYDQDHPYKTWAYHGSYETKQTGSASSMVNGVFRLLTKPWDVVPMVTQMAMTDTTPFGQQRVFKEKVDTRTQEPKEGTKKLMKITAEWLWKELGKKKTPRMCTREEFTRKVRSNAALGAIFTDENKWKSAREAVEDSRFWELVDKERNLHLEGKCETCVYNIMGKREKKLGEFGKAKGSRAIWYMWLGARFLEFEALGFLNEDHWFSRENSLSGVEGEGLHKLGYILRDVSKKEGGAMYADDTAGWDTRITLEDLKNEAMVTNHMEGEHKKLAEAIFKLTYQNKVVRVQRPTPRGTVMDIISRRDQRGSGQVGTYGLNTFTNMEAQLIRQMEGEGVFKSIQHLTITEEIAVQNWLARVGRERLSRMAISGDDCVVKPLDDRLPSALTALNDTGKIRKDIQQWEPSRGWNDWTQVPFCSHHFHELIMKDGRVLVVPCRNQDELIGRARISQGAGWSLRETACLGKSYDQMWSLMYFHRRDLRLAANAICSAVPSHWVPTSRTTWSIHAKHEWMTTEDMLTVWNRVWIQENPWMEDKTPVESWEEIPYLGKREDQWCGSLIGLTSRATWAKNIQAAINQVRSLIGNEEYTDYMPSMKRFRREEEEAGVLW

| SMILES | AC50 [2] | IC50 [4] | IC50 [5] | IC50 [6] | further results |
| --- | --- | --- | --- | --- | --- |
| Cc1nnc(SCC(=O)N2CCC(c3noc4ccc(F)cc34)CC2)s1 | 9.92 µM (active) |  |  |  | IC50 [1]: 39.1 µM (active) |
| O=C1/C(=C2\C(=O)N(Cc3ccc(F)cc3)c3ccccc32)SC(=S)N1CCS(=O)(=O)O |  |  |  |  | IC50 [3]: 32.5 µM (active) |
| Cc1ccc(NC(=O)CSc2sc3c(O)cc(O)nc3c2C#N)c(F)c1 |  | 35.9 µM (inactive) | 35.9 µM (inactive) | 35.9 µM (inactive) |  |
| Cc1ccc(-c2csc(NC(=O)c3ccc([N+](=O)[O-])o3)n2)cc1 |  | 35.9 µM (inactive) | 4.48 µM (active) | 35.9 µM (inactive) | EC50 [7]: 1.89 µM (active); EC50 [8]: 62.4 µM (active); EC50 [9]: 0.37 µM (active); EC50 [10]: 12.2 µM (active); EC50 [11]: > 150 µM (not active) |
| N#Cc1ccc(-c2csc(NNC(=O)c3ccc(Br)cc3)n2)cc1 | 8.39 µM (active) |  |  |  | EC50 [12]: > 350 µM (not active); EC50 [13]: > 350 µM (not active); AC50 [14]: 7.72 µM (active) |
| O=C(CN1CCOc2ccccc21)NCc1ccc(F)cc1 |  |  |  |  | AC50 [15]: 29.2 µM (active) |
| Cc1nnc(SCC(=O)Nc2ccc(Br)cc2)n(N)c1=O |  | 35.9 µM (inactive) | 20.1 µM (inactive) | 35.9 µM (inactive) |  |
| CC[C@]1(C(=O)OC)[C@H]2C(=O)N(Cc3ccccc3)C(=O)[C@H]2[C@H]2CN=C(SCc3ccc(C#N)cc3)N21 | 4.97 µM (active) |  |  |  | AC50 [16]: 0.709 µM (active); AC50 [17]: 1.07 µM (active); AC50 [18]: 1.45 µM (active); AC50 [19]: 5.1 µM (active) |
| C=CCn1c(=O)/c(=C/c2ccc(Cl)cc2)s/c1=C(\C#N)c1nnc2n1CCCCC2 | 23.9 µM (active) |  |  |  |  |
| Cc1cccc(CN2C(=O)CSc3ccc(C(=O)NC4CC4)cc32)c1 |  | 1.89 µM (active) | 1.21 µM (active) | 20.1 µM (inactive) |  |
| CC(=O)Nc1cc(-c2cccc(F)c2)cn2c(-c3ccc(S(C)(=O)=O)cc3)cnc12 |  | 5.75 µM (active) | 2.36 µM (active) | 31.1 µM (inactive) |  |
| Cc1[nH]n(-c2ccccc2)c(=O)c1C(c1ccccc1[N+](=O)[O-])C(C#N)C#N (stereo not given) |  |  |  |  | AC50 [20]: 3.3 µM (active); EC50 [21]: 7.28 µM (active); IC50 [3]: 86.4 µM (active) |
| CCOc1cc(/C=N/n2nnnc2N)ccc1OCc1c(C)no[n+]1[O-] |  | 11.8 µM (inactive) | 2.22 µM (active) | 35.9 µM (inactive) |  |
